This note sets out measurements from patent US12714735B2, “Herbal composition for cancer” (priority 2024, dated 2026).

Converted amounts (≈) assume the structure as drawn. “And” between values parts separate entries of the source, which are not always exact repeats. Identical values can stand only once.

The nature of one series: MTT cytotoxicity assay. The format is cell-based. To be noted: human. The procedure:
Human Lung carcinoma epithelial cell line, A549 cell line was obtained from the National Centre for Cell Sciences (NCCS, Pune). The cell line was cultured in DMEM (Himedia), supplemented with 10% fetal bovine serum (Sigma-Aldrich), 25 U/ml penicillin, and […] streptomycin (Himedia) at 37° ° C. in a water-saturated atmosphere of 95% air and 5% CO2. The experiments were repeated three times and average OD (absorbance values) were taken and plotted
8 test compounds (Wheatgrass, Ginger, Garlic, Tulsi, Green tea, Ashwagandha, 95% extract of Piperine and Turmeric) were obtained from the formulation department of Dabur Research Foundation, Sahibabad, Ghaziabad, U.P. 201010. 100 mg of the test compounds was weighed and dissolved in DMSO. After that, it was vortexed thoroughly followed by centrifugation. The clear supernatant was then used for further experimentation.
Cell culture Human Lung carcinoma epithelial cell line, A549 cell line was obtained from the National Centre for Cell Sciences (NCCS, Pune). The cell line was cultured in DMEM (Himedia), supplemented with 10% fetal bovine serum (Sigma-Aldrich), 25 U/ml penicillin, and […] streptomycin (Himedia) at 37° C. in a water-saturated atmosphere of 95% air and 5% CO2.
The effect of DMSO extracts of 8 test compounds (Wheatgrass, Ginger, Garlic, Tulsi, Green tea, Ashwagandha, 95% extract of Piperine and Turmeric) on A549 human lung carcinoma epithelial cell line was observed by MTT (3-(4,5-dimethylthiazol-2-yl)-2,5-diphenyl tetrazolium bromide) assay. MTT reagent was purchased from Sigma (Darmstadt, Germany). Cells were counted on a hemocytometer and 10,000 cells/well were plated in 96 well plate in 180 μl of complete media (containing 10% of FBS).
Cells were treated with different concentrations (0.01, 0.1, 1, 10, 50, 100 μg/ml) of Wheatgrass, Ginger, Garlic, Tulsi, Green tea & Ashwagandha extracts and at concentrations (0.001, 0.01, 0.1, 1, 10 and 50 μg/ml) of 95% extract of Piperine and Turmeric for 72 hr. After the stipulated time, MTT solution (5 mg/ml) was added to each well and incubated for 3 hr. The purple-colored precipitate of formazan was dissolved in 150 μl of DMSO (Sigma-Aldrich) by proper mixing. The color absorbance of each well was recorded at 570 nm in a Bioteck microplate reader with a reference serving as blank. Then, IC50 values of DMSO extracts of 8 test compounds were calculated.
Statistical analysis MTT Data were analyzed by using Microsoft office Excel Software.
(Tetrazolium dyes change colour on reduction, which living cells bring about.)

Series [1] can be described thus: Free radical scavenging activity (antioxidant assay). Type of series: biochemical. The text has this:
Evaluation of in-vitro cytotoxic potential of herbal products in human Lung cancer cell line (A549) by antioxidant assay: […] These substances may have potential as cytotoxic agents for further investigation. In an embodiment, free radical scavenging activity as per IC50 value: […]

What is called IC50 is the concentration needed to halve the response being measured. A lower IC50 goes with greater potency in that assay. Turning to `COc1cccc2c1C(=O)c1c(O)c3c(c(O)c1C2=O)C[C@@](O)(C(=O)CO)C[C@@H]3O[C@H]1C[C@H](N)[C@H](O)[C@H](C)O1` [Doxorubicin], in “MTT cytotoxicity assay”, the IC50 at 72 h amounted to 9.39 µM; the cytotoxicity at 72 h, 0.1 µM was 11.7%; the cytotoxicity at 72 h, 1 µM stood at 19.3%; the cytotoxicity at 72 h, 10 µM is 51%. For the same compound, in “MTT cytotoxicity assay”, the cytotoxicity at 72 h, 25 µM was found to be 66.2% and the cytotoxicity at 72 h, 50 µM stood at 69.2%.
In general, % Inhibition refers to the change of the read-out against control, counted positive when it falls. High values mean strong suppression, low ones little suppression. Turning to `O=C1O[C@H]([C@@H](O)CO)C(O)=C1O` [Ascorbic Acid], the “IC 50 value (free radical scavenging)” value in series [1] amounted to 37.54 µg/mL (≈ 213 µM). Moreover, the “% Inhibition” value in series [1] (1 μg/ml) is 2.3%; in series [1] (10 μg/ml), 13% and 13.2%; in series [1] (20 μg/ml) it was 24% and 24.4%; in series [1] (30 μg/ml) it was 38% and 37.6%; in series [1] (40 μg/ml), 51% and 50.8%; in series [1] (50 μg/ml) it was 63% and 62.6%. The “% Inhibition” value in series [1] (100 μg/ml) was 90% and 90.4%.
